Here are results for eleven substances from patent US5264209A, “Modified HIL-6” (Kirin-Amgen, Inc., priority 1990, dated 1993).

The test system of data set [1] is platelets in peripheral blood. Kind of data set: In vivo platelet production in mice, once a day for five days (Examples 13 and 16). Also on record: species or system Balb/c mice. To be noted: sixth day. Here is the method: (§1) In Examples 7-10 and 13-17, the PEGylated hIL-6 polypeptides of the present invention were dissolved in PBS containing 0.1% normal mouse serum. The concentration of the solutions was adjusted so that the final volume administered was 100 μl.
The hIL-6 produced in Example 4 or its PEGylated derivatives produced in Examples 11 and 12 were administered subcutaneously to four Balb/c mice (8 weeks old, female) once a day for five days. Control mice were administered with the vehicle. Blood samples were taken on the sixth day and platelets in peripheral blood were counted.
The PEGylated hIL-6 Fr120'-2 was administered to five mice once a day for five days at a dose of 1 μg/mouse and blood samples were taken on the sixth day as described in Example 13.

A short description of data set [2]: Acute toxicity (Example 17). The data set is classed as in vivo, Balb/c mice. To be noted: for deaths during the ten day period after the administration: 1, 5, or 10 mg/kg s.c.; for acute LD50: s.c., ten day observation, 14400 min. Here is the method:
as §1
The acute toxicity of PEGylated hIL-6 was investigated. The hIL-6 of Example 4 or its PEGylated derivatives (Fr45-2, Fr100-2, and Fr120-2), produced in Examples 4, 11, and 12, were administered subcutaneously to five Balb/c mice (6 weeks old, male, 21-23 g weight) at a dose of either 1, 5, or 10 mg/kg weight (as polypeptide).

For data set [3] the following is noted: Castell et al. 1988; cited from earlier work.
[4] abbreviates: Table 6, 1 μg/mouse/injection s.c. once a day for five days.
Where [5] appears, read: Table 6, 10 μg/mouse/injection s.c. once a day for five days.
[6] abbreviates: Table 6, 0.5 μg/mouse/injection s.c. once a day for five days.
Setting [7] is: Table 6, 5 μg/mouse/injection s.c. once a day for five days.
The mark [8] stands for this setting: Table 7, 0.1 μg/mouse/injection s.c. once a day for five days.
The mark [9] stands for this setting: Table 7, 0.5 μg/mouse/injection s.c. once a day for five days.
Where [10] appears, read: Table 7, 1 μg/mouse/injection s.c. once a day for five days.
Setting [11] is: Table 7, 5 μg/mouse/injection s.c. once a day for five days.
[12] abbreviates: Table 7, 10 μg/mouse/injection s.c. once a day for five days.

On to “Fr100-1: fraction of PEG(10000)IL-6, average 5.3 free amino groups per molecule”, for which the “Number of platelets (% of control)” value was 100.0 % of control in data set [1] (setting [4]) and 211.1 % of control in data set [1] (setting [5]).

In the case of “Fr100-2: fraction of PEG(10000)IL-6, average 7.4 free amino groups per molecule”, the “Number of platelets (% of control)” value in data set [1] (setting [6]) is on record as 107.9 % of control; in data set [1] (setting [4]) it was 148.9 % of control; in data set [1] (setting [7]), 205.9 % of control; in data set [1] (setting [5]) it was 250.8 % of control. In addition, the “deaths during the ten day period after the administration” value in data set [2] is recorded as “None of the mice was observed to die”. For the same substance, the “acute LD50” value in data set [2] is on record as “over 10 mg/kg weight”.

Regarding “Fr100-3: fraction of PEG(10000)IL-6, average 8.6 free amino groups per molecule”, the “Number of platelets (% of control)” value in data set [1] (setting [6]) is 113.7 % of control; in data set [1] (setting [4]), 141.1 % of control; in data set [1] (setting [7]), 212.7 % of control; in data set [1] (setting [5]), 204.4 % of control.

In the case of “Fr100-4: fraction of PEG(10000)IL-6, average 9.4 free amino groups per molecule”, the “Number of platelets (% of control)” value in data set [1] (setting [6]) is given as 138.7 % of control; in data set [1] (setting [4]) it was 142.5 % of control; in data set [1] (setting [7]), 226.5 % of control; in data set [1] (setting [5]) it was 203.2 % of control.

For the substance “Fr100-5: fraction of PEG(10000)IL-6, average 10.0 free amino groups per molecule”, the “Number of platelets (% of control)” value is 111.3 % of control in data set [1] (setting [6]), 142.8 % of control in data set [1] (setting [4]), 225.9 % of control in data set [1] (setting [7]) and 202.4 % of control in data set [1] (setting [5]).

For the substance “Fr120-1: fraction of PEG(12000)IL-6, average 5.2 free amino groups per molecule”, the “Number of platelets (% of control)” value in data set [1] (setting [8]) was 141.3 % of control; in data set [1] (setting [9]), 215.5 % of control; in data set [1] (setting [10]), 221.5 % of control; in data set [1] (setting [11]) it was 246.3 % of control; in data set [1] (setting [12]) it was 201.3 % of control.

For the substance “Fr120-2: fraction of PEG(12000)IL-6, average 7.6 free amino groups per molecule”, the “Number of platelets (% of control)” value in data set [1] (setting [8]) was 167.4 % of control; in data set [1] (setting [9]) it was 227.8 % of control; in data set [1] (setting [10]), 233.2 % of control; in data set [1] (setting [11]), 244.3 % of control; in data set [1] (setting [12]) it was 213.2 % of control. Further, the “deaths during the ten day period after the administration” value in data set [2] is “None of the mice was observed to die”. Further, the “acute LD50” value in data set [2] is given as “over 10 mg/kg weight”.

As to “Fr120-3: fraction of PEG(12000)IL-6, average 8.7 free amino groups per molecule”, the “Number of platelets (% of control)” value in data set [1] (setting [8]) was 170.1 % of control; in data set [1] (setting [9]) it was 205.9 % of control; in data set [1] (setting [10]) it was 242.7 % of control; in data set [1] (setting [11]), 243.1 % of control; in data set [1] (setting [12]) it was 221.4 % of control.

In the case of “Fr120-4: fraction of PEG(12000)IL-6, average 9.2 free amino groups per molecule”, the “Number of platelets (% of control)” value in data set [1] (setting [8]) is 161.5 % of control; in data set [1] (setting [9]), 203.4 % of control; in data set [1] (setting [10]), 221.4 % of control; in data set [1] (setting [11]), 229.0 % of control; in data set [1] (setting [12]), 200.4 % of control.

Turning to “Fr120-5: fraction of PEG(12000)IL-6, average 9.8 free amino groups per molecule”, the “Number of platelets (% of control)” value is listed as 154.1 % of control in data set [1] (setting [8]); 191.5 % of control in data set [1] (setting [9]); 225.4 % of control in data set [1] (setting [10]); 224.8 % of control in data set [1] (setting [11]); 235.9 % of control in data set [1] (setting [12]).

For the substance “IL-6: interleukin-6, multi-functional cytokine”, in data set [3], the “in vivo half-life in blood” value is “very short”.
